From paper PMC12257394, “Design, Synthesis, and Biological Evaluation of Ferrocenyl–Cyclo-(Gly‑L‑Pro) Hybrids Sensitizing Multidrug-Resistant Cancer Cells to Anticancer Agents” (ACS Medicinal Chemistry Letters, 2025)

Experiments:
Format in all cases: cell-based, human
MRC-5 fibroblasts = experiment: Neutral red uptake viability assay, MRC-5; details: for survival rate: MRC-5, 10 μM, 72 h exposure, n = 3, ± SD; for Surviwal rate of MRC-5 at 10 microM: MRC-5, 10 microM (xlsx)
Procedure: (§1) The normal lung fibroblast MRC-5 and colorectal adenocarcinoma SW620 cell lines used in this experiment were purchased from American Type Culture Collection (USA) via LGC […]
(§2) Standards. Multidrug-resistant variants of SW620 cells were developed in our laboratory as described previously.10, 11 All cells were cultured under standard conditions (37°C, 5% CO2, 100% humidity) in high-glucose DMEM supplemented with GlutaMaxTM, HEPES (ThermoFisher Scientific, USA), and 10% fetal bovine serum (EURx, Poland). Cells were routinely tested for potential Mycoplasma contamination using the MycoProbe Mycoplasma Detection kit (R&D System, USA).
(§3) In total, 104 cells in 100 µL of complete medium were plated per well of a 96-well plate and left overnight to allow cells to adhere to the surface. Then, the cells were exposed to a desired concentration of tested compound(s). Stock solutions were prepared in DMSO and used immediately. The final DMSO concentration was constant and nontoxic (0.1% v/v). After 70-h incubation, neutral red was added to the final concentration of 1 mM. After another 2 h, the medium was aspirated, and cells were washed twice with PBS. Dye was released using 100 µL of a solubilizer (1% acetic acid in 50% ethanol) on an orbital shaker (10 min). Absorbance was read at 540 nm using EnVision Multilabel Plate Reader (Perkin Elmer, USA). Results were expressed as % of control. The IC50 parameters were calculated using GraphPad Prism version 10 (GraphPad Software, Boston, Massachusetts USA). […]
(§4) All experiments were performed in triplicate (n = 3).

[1] = tested on: ABCB1-overexpressing SW620D cells; experiment: MDR reversal assay (ERP), SW620D; details: for ERP value, doxorubicin + compound: SW620D (xlsx); for ERP = IC50(drug)MDR/IC50(drug+4)MDR: doxorubicin, SW620D
Text: (§5) We investigated the potency of 4a–e to inhibit ABC transporters (ABCB1, ABCC1, and ABCG2) by determining their enhancement of reversal potency (ERP) values. ERP represents fold changes in the IC50 values of anticancer drugs in multidrug-resistant cancer sublines (ABCB1-overexpressing SW620D, SW620E, and SW620V; ABCC1-overexpressing SW620M; ABCG2-overexpressing SW620C and SW620Mito) exposed to a combination of the investigated compounds and anticancer agents at equimolar concentrations, compared with values obtained with drugs alone (Tables S2 and S3 and Figure ).
as §2
(§6) In total, 104 cells in 100 µL of complete medium were plated per well of a 96-well plate and left overnight to allow cells to adhere to the surface. Then, the cells were exposed to a desired concentration of tested compound(s). Stock solutions were prepared in DMSO and used immediately. The final DMSO concentration was constant and nontoxic (0.1% v/v). After 70-h incubation, neutral red was added to the final concentration of 1 mM. After another 2 h, the medium was aspirated, and cells were washed twice with PBS. Dye was released using 100 µL of a solubilizer (1% acetic acid in 50% ethanol) on an orbital shaker (10 min). Absorbance was read at 540 nm using EnVision Multilabel Plate Reader (Perkin Elmer, USA). Results were expressed as % of control. The IC50 parameters were calculated using GraphPad Prism version 10 (GraphPad Software, Boston, Massachusetts USA).
(§7) The enhancement of reversal potency (ERP) value determination
(§8) For MDR reversal assays, cytotoxic agents were co-administered with compounds 4a–4e at equimolar concentrations in a range of 10 nM to 100 µM. IC₅₀ values were determined in ABCB1-overexpressing SW620 cell line variants. The enhancement of reversal potency (ERP) was calculated using the following formula: ERP = IC₅₀(drug)MDR / IC₅₀(drug + compound)MDR. All experiments were performed in triplicate (n = 3).

[2] = tested on: SW620M cells (methotrexate-resistant); experiment: Neutral red uptake viability assay, SW620M; details: 72 h; for survival rate: n = 3, ± SD; for IC50: n = 3, read-out: Cytotoxic activity IC50 (95% CI)
Procedure: (§9) In general, compounds 4a–e exerted little or no cytotoxic effect on either SW620 or multidrug-resistant sublines even at 10 μM, with the remarkable exception of SW620C (cisplatin-selected variant of SW620) cells, which turned out to be relatively susceptible toward ferrocenyl 4a–c. […] This trend may reflect steric or electronic contributions to cellular uptake or interaction with intracellular targets. […] However, since E/Z isomeric data are currently available only for compound 4c, this hypothesis requires validation. To quantify this effect, IC50 values were determined (Table ). […]
as §1, §2, §3, §4

[3] = tested on: ABCG2-overexpressing SW620Mito cells; experiment: MDR reversal assay (ERP), SW620Mito; details: for ERP value, mitoxantrone + compound: SW620Mito (xlsx); for ERP = IC50(drug)MDR/IC50(drug+4)MDR: mitoxantrone, SW620Mito
Text: as §5, §2, §6, §7, §8

[4] = tested on: ABCC1-overexpressing SW620M cells; experiment: MDR reversal assay (ERP), SW620M; details: for ERP value, methotrexate + compound: SW620M (xlsx); for ERP = IC50(drug)MDR/IC50(drug+4)MDR: methotrexate, SW620M
Text: as §5, §2, §6, §7, §8

[5] = tested on: SW620D cells (doxorubicin-resistant); experiment: Neutral red uptake viability assay, SW620D; details: 72 h; for survival rate: n = 3, ± SD; for IC50: n = 3, read-out: Cytotoxic activity IC50 (95% CI)
Procedure: as §9, §1, §2, §6, §7, §8

[6] = tested on: SW620V cells (vincristine-resistant); experiment: Neutral red uptake viability assay, SW620V; details: 72 h; for survival rate: n = 3, ± SD; for IC50: n = 3, read-out: Cytotoxic activity IC50 (95% CI)
Procedure: as §9, §1, §2, §6, §7, §8

SW620 cells = experiment: Synergy determination (Bliss model, SynergyFinder), SW620;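 also: score below −10 means likely antagonism and −10 to 10 means additive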
Text: In an ideal setting, the effect of cell exposure to a combination of a chemotherapeutic and an MDR inhibitor should be synergistic. […] The highest synergy scores identified an optimal concentration range where the combination exerted its maximal effect. […] In cisplatin-resistant SW620C cells, the low or lack of synergy observed for most compounds may be due to the additive effects of cisplatin and 4 rather than a true synergistic interaction. […]
To evaluate the potential interactions between putative ABC inhibitors and anticancer drugs, we utilized the Bliss independence model, as implemented in the SynergyFinder web application.13, 14 Synergy scores and the most synergistic area scores were calculated based on the normalized dose–response matrices. A synergy score below −10 indicates likely […]
above 10 is indicative of likely synergistic interactions.
All experiments were performed at least three times, and the data were statistically analyzed

[7] = tested on: ABCB1-overexpressing SW620E cells; experiment: MDR reversal assay (ERP), SW620E; details: for ERP value, etoposide + compound: SW620E (xlsx); for ERP = IC50(drug)MDR/IC50(drug+4)MDR: etoposide, SW620E
Text: as §5, §2, §6, §7, §8

SMILES | survival rate (MRC-5 fibroblasts) | ERP value, doxorubicin + compound [1] | ERP = IC50(drug)MDR/IC50(drug+4)MDR [1] | survival rate ([2]; 1 μM) | survival rate ([2]; 10 μM) | IC50 [2] | ERP value, mitoxantrone + compound [3] | ERP = IC50(drug)MDR/IC50(drug+4)MDR [3] | ERP value, methotrexate + compound [4] | ERP = IC50(drug)MDR/IC50(drug+4)MDR [4] | survival rate ([5]; 1 μM) | survival rate ([5]; 10 μM) | survival rate ([6]; 1 μM) | survival rate ([6]; 10 μM) | synergy score (in parentheses) (SW620 cells; drug cisplatin + additive) | synergy score (in parentheses) (SW620 cells; drug doxorubicin + additive) | synergy score (in parentheses) (SW620 cells; drug etoposide + additive) | synergy score (in parentheses) (SW620 cells; drug mitoxantrone + additive) | ERP value, etoposide + compound [7] | ERP = IC50(drug)MDR/IC50(drug+4)MDR [7] | other results
O=C1N/C(=C/c2cccc(-[c-]3cccc3)c2)C(=O)N2CCC[C@@H]12.[Fe+2].c1cc[cH-]c1 [(S,E)-4c] | 110 ± 10% | 0.77 | 0.77 | 93 ± 1.8% | 96 ± 4.6% | > 100 µM | 0.87 | 0.87 | 1.16 | 1.16 | 95 ± 1.5% | 95 ± 4.5% | 96 ± 1.8% | 94 ± 0.8% | −4.66 | −1.89 | −4.80 | 0.86 | 0.87 | 0.87 | IC50 [5]: > 100 µM; IC50 [6]: > 100 µM; synergy score (in parentheses) (SW620 cells; drug methotrexate + additive): −4.31
O=C1N/C(=C/c2ccccc2)C(=O)N2CCC[C@@H]12 [(S,E)-4e] | 117 ± 11% | 0.77 | 0.77 | 93 ± 0.3% | 95 ± 3.4% | – | 0.82 | 0.82 | 1.08 | 1.08 | 96 ± 2.4% | 95 ± 0.7% | 95 ± 2.9% | 95 ± 3.3% | −4.17 | −4.78 | −1.15 | −3.41 | 0.88 | 0.88 | Surviwal rate of MRC-5 at 10 microM (MRC-5 fibroblasts): 117_11
O=C1N/C(=C\[c-]2cccc2)C(=O)N2CCC[C@@H]12.[Fe+2].c1cc[cH-]c1 [(S,Z)-4a] | 106 ± 13% | 2.90 | 2.90 | 93 ± 0.9% | 98 ± 2.3% | > 100 µM | 4.61 | 4.61 | 1.17 | 1.17 | 96 ± 4.8% | 93 ± 1.1% | 94 ± 0.7% | 94 ± 2.5% | −4.74 | −4.15 | −4.45 | −1.66 | 5.61 | 5.61 | IC50 [5]: > 100 µM; IC50 [6]: > 100 µM; synergy score (in parentheses) (SW620 cells; drug methotrexate + additive): −5.99; synergy score (in parentheses) (SW620 cells; drug vincristine + additive): −0.36
O=C1N/C(=C\c2ccccc2-[c-]2cccc2)C(=O)N2CCC[C@@H]12.[Fe+2].c1cc[cH-]c1 [(S,Z)-4b] | 92 ± 8.7% | 2.34 | 2.34 | 97 ± 0.8% | 96 ± 3.5% | 52.2 µM | 9.11 | 9.11 | 1.84 | 1.84 | 97 ± 1.0% | 87 ± 3.0% | 92 ± 0.9% | 95 ± 2.4% | −5.00 | −2.67 | −5.23 | −3.17 | 2.22 | 2.22 | IC50 [5]: > 100 µM; IC50 [6]: 48.8 µM; synergy score (in parentheses) (SW620 cells; drug methotrexate + additive): 3.26; synergy score (in parentheses) (SW620 cells; drug vincristine + additive): 5.77
O=C1N/C(=C\c2ccc(-[c-]3cccc3)cc2)C(=O)N2CCC[C@@H]12.[Fe+2].c1cc[cH-]c1 [(S,Z)-4d] | 101 ± 7% | 2.86 | 2.86 | 99 ± 0.8% | 95 ± 1.5% | > 100 µM | 10.3 | 10.3 | 0.84 | 0.84 | 92 ± 0.8% | 96 ± 0.9% | 94 ± 2.9% | 95 ± 3.2% | −2.46 | – | 0.64 | -1.93 | 5.84 | 5.84 | IC50 [5]: > 100 µM; IC50 [6]: > 100 µM; synergy score (in parentheses) (SW620 cells; drug methotrexate + additive): −2.64; synergy score (in parentheses) (SW620 cells; drug vincristine + additive): -1.29
O=C1N/C(=C\c2ccccc2)C(=O)N2CCC[C@@H]12 [(S,Z)-4e] | 102 ± 6% | 0.70 | 0.70 | 96 ± 4.8% | 95 ± 4.0% | – | 1.01 | 1.01 | 1.28 | 1.28 | 96 ± 0.7% | 94 ± 2.9% | 98 ± 0.9% | 99 ± 1.4% | −3.94 | −3.90 | −3.96 | 1.87 | 0.88 | 0.88 | Surviwal rate of MRC-5 at 10 microM (MRC-5 fibroblasts): 102_6
